Reference: PubChem BioAssay (NCI)
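Each compound was tested at five concentrations against cells in 96-well plates for 48 hours. The concentration for full growth arrest is given as TGI.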

What was measured:
Test in all cases: growth of human tumour cells (NCI), 48 h
[1] = tested on: HT29 colon
[2] = tested on: NCI-H460 lung
[3] = tested on: NCI-H23 lung
[4] = tested on: CAKI-1 renal
[5] = tested on: NCI-H226 lung
[6] = tested on: T-47D breast
[7] = tested on: TK-10 renal
[8] = tested on: HOP-62 NSCLC
[9] = tested on: HOP-92 NSCLC
[10] = tested on: A498 renal
[11] = tested on: SF-539 CNS
[12] = tested on: KM12 colon
[13] = tested on: SK-MEL-5 melanoma
[14] = tested on: OVCAR-8 ovarian
[15] = tested on: UACC-62 melanoma
[16] = tested on: OVCAR-4 ovarian
[17] = tested on: DU-145 prostate
[18] = tested on: NCI/ADR-RES ovarian
[19] = tested on: PC-3 prostate
[20] = tested on: SNB-19 CNS
[21] = tested on: MDA-N
[22] = tested on: MDA-MB-231 breast
[23] = tested on: UO-31 renal
[24] = tested on: MOLT-4 leukemia
[25] = tested on: MDA-MB-435
[26] = tested on: MALME-3M melanoma
[27] = tested on: SK-MEL-2 melanoma
[28] = tested on: SNB-75 CNS
[29] = tested on: K-562 leukemia
[30] = tested on: SW-620 colon
[31] = tested on: IGROV1 ovarian
[32] = tested on: OVCAR-3 ovarian
[33] = tested on: M14 melanoma
[34] = tested on: A549 NSCLC
[35] = tested on: HS 578T breast
[36] = tested on: RXF 393 renal
[37] = tested on: U251 CNS
[38] = tested on: HCT-116 colon
[39] = tested on: BT-549 breast
[40] = tested on: OVCAR-5 ovarian
[41] = tested on: RPMI-8226 leukemia
[42] = tested on: SN12C renal
[43] = tested on: UACC-257 melanoma
[44] = tested on: SK-MEL-28 melanoma
[45] = tested on: COLO 205 colon
[46] = tested on: EKVX NSCLC
[47] = tested on: SF-295 CNS
[48] = tested on: CCRF-CEM leukemia
[49] = tested on: ACHN renal
[50] = tested on: MCF7 breast
[51] = tested on: LOX IMVI melanoma
[52] = tested on: NCI-H522 lung
[53] = tested on: SK-OV-3 ovarian
[54] = tested on: SF-268 CNS
[55] = tested on: HCT-15 colon
[56] = tested on: SR leukemia
[57] = tested on: HL-60(TB) leukemia
[58] = tested on: HCC-2998 colon
[59] = tested on: 786-0 renal
[60] = tested on: KM20L2 colon
[61] = tested on: DLD-1 colon
[62] = tested on: SNB-78 CNS
[63] = tested on: M19-MEL melanoma
[64] = tested on: LXFL 529 NSCLC
[65] = tested on: XF 498 CNS
[66] = tested on: DMS 114 small cell lung
[67] = tested on: DMS 273 small cell lung

CCCCCCCCCCCCCCCCCCNc1ccn(C2OC(COP(=O)(O)OCC3OC(n4cc(C)c(=O)[nH]c4=O)CC3F)C(O)C2O)c(=O)n1 (stereo unspecified)
TGI [1]: > 55 µM | TGI [2]: 43.9 µM | TGI [3]: 17.9 µM | TGI [4]: 16.8 µM | TGI [5]: 59.5 µM | TGI [6]: 44.2 µM | TGI [7]: 9.9 µM | TGI [8]: 33.1 µM | TGI [9]: 37.5 µM | TGI [10]: > 60.2 µM | TGI [11]: 19.9 µM | TGI [12]: 14.3 µM | TGI [13]: 44.9 µM | TGI [14]: 29.3 µM | TGI [15]: 12.6 µM | TGI [16]: 42.5 µM | TGI [17]: 46.2 µM | TGI [18]: 45.9 µM | TGI [19]: 5.38 µM | TGI [20]: 14.1 µM | TGI [21]: 38.9 µM | TGI [22]: 48.7 µM | TGI [23]: 43.6 µM | TGI [24]: 15.4 µM | TGI [25]: 38.9 µM | TGI [26]: 40.9 µM | TGI [27]: 19.4 µM | TGI [28]: 37.6 µM | TGI [29]: 42.5 µM | TGI [30]: 12.3 µM | TGI [31]: 17.9 µM | TGI [32]: 50.5 µM | TGI [33]: 30.9 µM | TGI [34]: 46.7 µM | TGI [35]: 50.3 µM | TGI [36]: 3.84 µM | TGI [37]: 15 µM | TGI [38]: 42.8 µM | TGI [39]: 11 µM | TGI [40]: 6.48 µM | TGI [41]: 12.9 µM | TGI [42]: 39.7 µM | TGI [43]: 27.8 µM | TGI [44]: 17.6 µM | TGI [45]: 9.53 µM | TGI [46]: 20.7 µM | TGI [47]: 41.9 µM | TGI [48]: 12.4 µM | TGI [49]: > 57.1 µM | TGI [50]: > 64.5 µM | TGI [51]: 14.9 µM | TGI [52]: 9.04 µM | TGI [53]: 18 µM | TGI [54]: 19.5 µM | TGI [55]: 15.9 µM | TGI [56]: 5.14 µM | TGI [57]: 19.3 µM | TGI [58]: 13.5 µM | TGI [59]: 9.52 µM

CC1=NN(C(=O)c2ccccc2O)C(=O)/C1=C/c1cccc(O)c1
TGI [1]: > 100 µM | TGI [2]: > 100 µM | TGI [4]: > 100 µM | TGI [5]: 83.2 µM | TGI [6]: > 100 µM | TGI [7]: > 100 µM | TGI [9]: > 100 µM | TGI [10]: 0.323 µM | TGI [11]: 4.29 µM | TGI [12]: > 100 µM | TGI [13]: > 100 µM | TGI [14]: > 100 µM | TGI [15]: 2.74 µM | TGI [16]: > 100 µM | TGI [17]: > 100 µM | TGI [18]: > 100 µM | TGI [19]: > 100 µM | TGI [20]: > 100 µM | TGI [21]: > 100 µM | TGI [22]: > 100 µM | TGI [60]: > 100 µM | TGI [24]: > 100 µM | TGI [26]: > 100 µM | TGI [27]: > 48.4 µM | TGI [28]: > 100 µM | TGI [29]: > 100 µM | TGI [30]: > 100 µM | TGI [61]: > 100 µM | TGI [33]: 37 µM | TGI [34]: > 100 µM | TGI [37]: > 100 µM | TGI [38]: > 100 µM | TGI [39]: > 100 µM | TGI [40]: > 100 µM | TGI [41]: > 100 µM | TGI [42]: > 100 µM | TGI [43]: > 100 µM | TGI [44]: > 100 µM | TGI [45]: > 86.9 µM | TGI [46]: > 100 µM | TGI [47]: > 100 µM | TGI [62]: > 100 µM | TGI [48]: > 100 µM | TGI [49]: > 100 µM | TGI [50]: > 100 µM | TGI [63]: > 100 µM | TGI [51]: > 80.5 µM | TGI [52]: > 30.7 µM | TGI [53]: > 100 µM | TGI [64]: > 100 µM | TGI [54]: > 100 µM | TGI [55]: > 100 µM | TGI [56]: > 100 µM | TGI [57]: > 100 µM | TGI [58]: > 100 µM | TGI [65]: > 100 µM | TGI [59]: > 100 µM

Cc1[nH]c(=O)nc2c1C(NCCCN(C)C)c1cc(Cl)ccc1N2 (stereo unspecified)
TGI [1]: 22.2 µM | TGI [2]: 29 µM | TGI [3]: 32.3 µM | TGI [5]: 31 µM | TGI [7]: 32.5 µM | TGI [8]: 27.9 µM | TGI [9]: 23.4 µM | TGI [11]: 26.3 µM | TGI [12]: 30.3 µM | TGI [14]: 28.7 µM | TGI [15]: 26.2 µM | TGI [66]: 28.2 µM | TGI [20]: 31.2 µM | TGI [67]: 25.3 µM | TGI [23]: 26.4 µM | TGI [60]: 24.4 µM | TGI [24]: 44.6 µM | TGI [26]: 30.3 µM | TGI [27]: 31.5 µM | TGI [28]: 26.2 µM | TGI [29]: 26.9 µM | TGI [30]: 28.6 µM | TGI [31]: 30.1 µM | TGI [61]: 35.3 µM | TGI [32]: 33.6 µM | TGI [33]: 21.3 µM | TGI [34]: 28.1 µM | TGI [36]: 27 µM | TGI [37]: 29.3 µM | TGI [38]: 28.5 µM | TGI [41]: 44 µM | TGI [42]: 28.2 µM | TGI [43]: 26 µM | TGI [44]: 27.2 µM | TGI [45]: 26 µM | TGI [46]: 30.1 µM | TGI [47]: 30.7 µM | TGI [62]: 33.2 µM | TGI [48]: 34.8 µM | TGI [49]: 30.2 µM | TGI [63]: 12.9 µM | TGI [51]: 24.5 µM | TGI [52]: 28.5 µM | TGI [53]: 32.1 µM | TGI [64]: 30.6 µM | TGI [54]: 30.5 µM | TGI [56]: 27.3 µM | TGI [57]: 34.4 µM | TGI [58]: 30.1 µM | TGI [65]: 30.8 µM | TGI [59]: 27.7 µM

CC(=O)Nc1ccc(NS(=O)(=O)c2ccc3nc(C)n(NS(=O)(=O)c4ccc(NC(C)=O)cc4)c(=O)c3c2)cc1
TGI [1]: > 100 µM | TGI [2]: > 100 µM | TGI [3]: > 100 µM | TGI [4]: > 100 µM | TGI [5]: > 100 µM | TGI [6]: > 100 µM | TGI [7]: > 100 µM | TGI [8]: > 100 µM | TGI [9]: > 100 µM | TGI [10]: > 100 µM | TGI [11]: > 100 µM | TGI [12]: > 100 µM | TGI [13]: > 100 µM | TGI [14]: > 100 µM | TGI [15]: > 100 µM | TGI [16]: > 100 µM | TGI [17]: > 100 µM | TGI [18]: > 100 µM | TGI [19]: > 100 µM | TGI [20]: > 100 µM | TGI [21]: > 100 µM | TGI [22]: > 100 µM | TGI [23]: > 100 µM | TGI [24]: > 100 µM | TGI [25]: > 100 µM | TGI [26]: > 100 µM | TGI [27]: > 100 µM | TGI [28]: > 100 µM | TGI [29]: > 100 µM | TGI [30]: > 100 µM | TGI [31]: > 100 µM | TGI [32]: > 100 µM | TGI [33]: > 100 µM | TGI [34]: > 100 µM | TGI [35]: > 100 µM | TGI [36]: > 100 µM | TGI [37]: > 100 µM | TGI [38]: > 100 µM | TGI [39]: > 100 µM | TGI [40]: > 100 µM | TGI [41]: > 100 µM | TGI [42]: > 100 µM | TGI [43]: > 100 µM | TGI [44]: > 100 µM | TGI [45]: > 100 µM | TGI [46]: > 100 µM | TGI [47]: > 100 µM | TGI [48]: > 100 µM | TGI [49]: > 100 µM | TGI [50]: > 100 µM | TGI [51]: > 100 µM | TGI [52]: > 100 µM | TGI [53]: > 100 µM | TGI [54]: > 100 µM | TGI [55]: > 100 µM | TGI [56]: > 100 µM | TGI [57]: > 100 µM | TGI [58]: > 100 µM | TGI [59]: > 100 µM
